# Key:
# Coturnix japonica = settings: repeat dose other; oral
# Neovison sp. = settings: repeat dose other; oral; Mink
# Oryctolagus sp. [1] = tested on: Oryctolagus sp.
# Oryctolagus sp. [2] = settings: subchronic; duration: 10 weeks; oral; drinking water; M; Dutch-belted; Endocrine
# Oryctolagus sp. [3] = settings: for NOAEL: New Zealand
# Rattus norvegicus [4] = settings: for LEL: uterotrophic, Active
# Cavia porcellus = settings: acute, duration: 1 days, oral, gavage, M, Guinea Pig
# Rattus norvegicus [5] = settings: short-term; duration: 3 days; injection; subcutaneous; F; Crj:CD; uterus: uterine dry weight (absolute)
# Oryctolagus sp. [6] = settings: duration: 7 days, oral, gavage, New Zealand
# Rattus norvegicus [7] = settings: oral, gavage, Sprague-Dawley; for NOAEL: reproduction developmental
# Oryctolagus sp. [8] = assay: LD0; higher = less toxic; settings: acute; dermal; occlusive; New Zealand
# Macaca mulatta = settings: repeat dose other; oral
# Cricetulus sp. = settings: subchronic; duration: 13 weeks; inhalation; M/F; Hamster; increased hemolysis, abnormal rbc morphology, and increased spleen weight
# Mus musculus [9] = settings: subchronic, inhalation
# Rattus norvegicus [10] = settings: M/F
# Canidae [11] = settings: chronic, duration: 1 years, oral, diet, Dog Other, Cardiac toxicity and moderate-to-severe dilation of the right atrium
# Sus scrofa = settings: short-term; duration: 19 days; oral; diet; F; Swedish Landrace/Large Yorkshire cross; reproductive
# Rattus norvegicus [12] = settings: chronic; duration: 2 years; oral; diet; Whole body: Decreased weight gain
# Canidae [13] = settings: chronic; duration: 52 weeks; oral; capsule; M/F; Beagle; hepatic
# Mus musculus [14] = settings: chronic, oral, diet, B6C3F1
# Homo sapiens [15] = settings: clinical; oral; M/F; Decreased respiratory function
# Mus musculus [16] = settings: acute; duration: 1 days; oral; M; DD; hepatic
# Oryctolagus sp. [17] = tested on: Oryctolagus sp.; remark: listed apart in the source
# Rattus norvegicus [18] = settings: short-term; duration: 28 days; oral; gavage; M/F; Wistar; Body Weight Changes: Weight gain decrease + Food Consumption: decrease + Blood Chemistry: T-Cho decrease TG decrease ALP increase Ch E …
# Rattus norvegicus [19] = settings: chronic; duration: 2 years; oral; diet; M/F; Sherman Wistar; neurological
# Homo sapiens [20] = settings: clinical; duration: 20 days; oral; capsule; Blood: Decreased cholinesterase activity
# [21] = subchronic, duration: 13 weeks, inhalation, M, testicular effects
# [22] = duration: 12 weeks, Increased hemolysis, increased spleen weight, and impaired compensatory erythropoiesis
# [23] = duration: 13 weeks, M/F, increased hemolysis, abnormal rbc morphology, and increased spleen weight
# [24] = subchronic, duration: 13 weeks, inhalation, increased hemolysis, abnormal rbc morphology, and increased spleen weight
# [25] = chronic, duration: 2 years, oral, diet, reduced body weight gain
# [26] = developmental, oral, F, reduced stool quantity, food consumption and body weight gain hyperirritability (maternal effects)
structure (smiles),measurement,setting,value
"ClC1C(Cl)C(Cl)C(Cl)C(Cl)C1Cl (stereo not given) [1,2,3,4,5,6-Hexachlorocyclohexane]",LOAEL,Coturnix japonica,2.25 mg/kg-day
same,NOAEL,Coturnix japonica,0.56 mg/kg-day
same,LOAEL,Neovison sp.,0.14 mg/kg-day
same,NOAEL,Neovison sp.,0.014 mg/kg-day
"ClCC(Br)CBr (stereo not given) [1,2-Dibromo-3-chloropropane]",LOAEL,Oryctolagus sp. [1]; [21],9.4 mg/m3
same,NOAEL,Oryctolagus sp. [1]; [21],0.94 mg/m3
same,NOAEL,Oryctolagus sp. [2],0.7 mg/kg-day
same,NOAEL,"Oryctolagus sp. [3]; chronic, duration: 14 weeks, inhalation, M, reproductive",0.967 mg/m3
same,LOAEL,"Oryctolagus sp. [3]; subchronic, duration: 10 weeks, oral, drinking water, M, Dutch belted, reproductive",1.88 mg/kg-day
"Oc1ccccc1Cc1ccccc1O [2,2'-Bisphenol F]",LEL,"Rattus norvegicus [4]; duration: 3 days, injection, subcutaneous",46.5 mg/kg-day
same,LOEL,Cavia porcellus; BALF eosinophil peroxidase activity + BALF histamine activity + BALF total leukocytes + specific airway resistance (sRaw) - immediate …,12.5 mg/kg-day
same,LOEL,Cavia porcellus; BALF phospholipase A2 activity,50 mg/kg-day
same,NOEL,Cavia porcellus; BALF phospholipase A2 activity,25 mg/kg-day
same,LOEL,Rattus norvegicus [5],200 mg/kg-day
same,NOEL,Rattus norvegicus [5],20 mg/kg-day
Nc1ccc([N+](=O)[O-])cc1 [4-Nitrobenzenamine],NOAEL,Oryctolagus sp. [6]; developmental,125 mg/kg-day
same,NOAEL,"Oryctolagus sp. [6]; reproduction developmental, generation: F1",125 mg/kg-day
same,LD50,Rattus norvegicus [7]; acute,1400 mg/kg
same,NOAEL,Rattus norvegicus [7]; duration: 90 days,< 3 mg/kg-day
same,NOAEL,"Rattus norvegicus [7]; duration: 167 days, generation: F0",1.5 mg/kg-day
same,NOAEL,"Rattus norvegicus [7]; duration: 167 days, generation: F1",9000 mg/kg-day
same,LD0,Oryctolagus sp. [8],> 7940 mg/kg
Clc1cc(Cl)cc(-c2cc(Cl)cc(Cl)c2)c1 [Aroclor 1248],LOAEL,Macaca mulatta,0.1 mg/kg-day
same,NOAEL,Macaca mulatta,0.01 mg/kg-day
[AsH3] [Arsine],LOAEL,Cricetulus sp.,1.6 mg/m3
same,NOAEL,Cricetulus sp.,0.08 mg/m3
same,LOAEL,Mus musculus [9]; [22],1.6 mg/m3
same,NOAEL,Mus musculus [9]; [22],0.08 mg/m3
same,LOAEL,Mus musculus [9]; [23],1.6 mg/m3
same,NOAEL,Mus musculus [9]; [23],0.08 mg/m3
same,LOAEL,Rattus norvegicus [10]; [24],1.6 mg/m3
same,NOAEL,Rattus norvegicus [10]; [24],0.08 mg/m3
CCNc1nc(Cl)nc(NC(C)C)n1 [Atrazine],LOAEL,Canidae [11]; F,33.8 mg/kg-day
same,NOAEL,Canidae [11]; M/F,4.97 mg/kg-day
same,LOAEL,Canidae [11]; M,33.6 mg/kg-day
same,LOAEL,Rattus norvegicus [10]; [25],25 mg/kg-day
same,NOAEL,Rattus norvegicus [10]; [25],3.5 mg/kg-day
same,NOAEL,"Oryctolagus sp. [3]; reproduction developmental, duration: 12 days, oral, gavage, F, body weight",1 mg/kg-day
same,LOAEL,Sus scrofa,1 mg/kg-day
same,NOEL,Rattus norvegicus [12],3.5 mg/kg-day
COC(=O)c1cc(Oc2ccc(Cl)cc2Cl)ccc1[N+](=O)[O-] [Bifenox],NOAEL,Canidae [13],145 mg/kg-day
same,LOAEL,"Mus musculus [14]; duration: 2 years, M/F, Urinary",7 mg/kg-day
Cc1ccc([N+](=O)[O-])cc1N [C.I. Azoic Diazo Component 12],LOAEL,"Mus musculus [14]; duration: 78 weeks, F",207 mg/kg-day
CC(C)NCC(O)COc1cccc2[nH]c3ccccc3c12 (stereo not given) [Carazolol],NOEL,Homo sapiens [15],0.0005 mg/kg-day
S=C=S [Carbon disulfide],NOEL,"Oryctolagus sp. [1]; developmental, oral, M/F, fetal toxicity/ malformations",11 mg/kg-day
same,LOAEL,Mus musculus [16],3 mg/kg-day
same,NOEL,"Oryctolagus sp. [17]; developmental, inhalation, intermittent, Fetus: Toxicity",11 mg/kg-day
CCOC(=O)C(O)(c1ccc(Cl)cc1)c1ccc(Cl)cc1 [Chlorobenzilate],LEL,Oryctolagus sp. [1]; [26],20 mg/kg-day
same,NOEL,Oryctolagus sp. [1]; [26],5 mg/kg-day
same,NOEL,"Oryctolagus sp. [17]; short-term, duration: 13 days, oral, gavage, Gastrointestinal system: Decreased stool quantity + Nervous system: Hyperirritability + Whole body: Decreased food consumption + Whole body…",5 mg/kg-day
CCOP(=S)(OCC)Oc1nc(Cl)c(Cl)cc1Cl [Chlorpyrifos],NOEL,Rattus norvegicus [18],0.1 mg/kg-day
same,NOAEL,Rattus norvegicus [19],0.1 mg/kg-day
same,NOEL,"Rattus norvegicus [4]; Hershberger, duration: 10 days, oral, gavage, Sprague-Dawley, inactive + Negative + Negative + anti-androgenic + negative",2 mg/kg-day
same,LEL,"Rattus norvegicus [4]; duration: 56 days, oral",0.1 mg/kg-day
same,NOEL,Homo sapiens [20],0.03 mg/kg-day
